Tests used:
[1] = target: T1, Cholecystokinin receptor type A (Homo sapiens, UniProt P32238)
T1 sequence (P32238 whole entry): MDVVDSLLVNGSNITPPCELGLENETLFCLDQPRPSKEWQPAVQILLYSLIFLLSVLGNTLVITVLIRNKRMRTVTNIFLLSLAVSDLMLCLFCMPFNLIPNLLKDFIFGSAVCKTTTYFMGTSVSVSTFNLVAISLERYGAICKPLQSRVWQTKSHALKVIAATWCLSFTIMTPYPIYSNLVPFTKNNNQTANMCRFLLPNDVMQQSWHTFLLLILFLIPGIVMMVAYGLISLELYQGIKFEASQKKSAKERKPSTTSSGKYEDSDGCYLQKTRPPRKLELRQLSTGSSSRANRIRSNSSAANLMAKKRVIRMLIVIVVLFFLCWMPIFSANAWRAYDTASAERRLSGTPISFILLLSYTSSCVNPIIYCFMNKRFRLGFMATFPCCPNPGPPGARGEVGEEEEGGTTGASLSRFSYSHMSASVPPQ

Melanocortin receptor 4 = Melanocortin receptor 4 (Homo sapiens, UniProt P32245)
Sequence of Melanocortin receptor 4 (P32245 whole entry): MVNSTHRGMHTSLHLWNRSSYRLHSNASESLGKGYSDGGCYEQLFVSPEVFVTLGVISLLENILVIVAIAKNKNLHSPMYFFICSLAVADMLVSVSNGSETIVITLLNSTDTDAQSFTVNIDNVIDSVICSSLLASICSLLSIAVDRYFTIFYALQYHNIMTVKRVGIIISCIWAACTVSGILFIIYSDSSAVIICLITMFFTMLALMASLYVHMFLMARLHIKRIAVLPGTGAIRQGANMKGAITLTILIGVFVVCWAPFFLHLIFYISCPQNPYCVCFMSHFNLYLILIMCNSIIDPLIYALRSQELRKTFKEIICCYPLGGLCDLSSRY

[2] = target: T2, Alpha-1A adrenergic receptor (Homo sapiens, UniProt P35348)
T2 sequence (P35348 whole entry): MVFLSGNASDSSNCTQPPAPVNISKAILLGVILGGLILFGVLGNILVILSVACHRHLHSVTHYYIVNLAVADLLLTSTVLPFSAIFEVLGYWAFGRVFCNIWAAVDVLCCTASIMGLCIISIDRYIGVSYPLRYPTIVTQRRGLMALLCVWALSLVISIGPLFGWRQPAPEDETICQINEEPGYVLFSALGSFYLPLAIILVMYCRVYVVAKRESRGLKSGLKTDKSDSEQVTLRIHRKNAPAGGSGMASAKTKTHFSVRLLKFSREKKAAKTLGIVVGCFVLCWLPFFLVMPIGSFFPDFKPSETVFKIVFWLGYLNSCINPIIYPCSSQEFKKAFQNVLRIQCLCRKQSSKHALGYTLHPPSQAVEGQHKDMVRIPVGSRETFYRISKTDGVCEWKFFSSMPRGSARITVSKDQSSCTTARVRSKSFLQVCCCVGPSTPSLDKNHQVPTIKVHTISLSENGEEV

[3] = target: T3, 5-hydroxytryptamine receptor 2C (Homo sapiens, UniProt P28335)
T3 sequence (P28335 whole entry): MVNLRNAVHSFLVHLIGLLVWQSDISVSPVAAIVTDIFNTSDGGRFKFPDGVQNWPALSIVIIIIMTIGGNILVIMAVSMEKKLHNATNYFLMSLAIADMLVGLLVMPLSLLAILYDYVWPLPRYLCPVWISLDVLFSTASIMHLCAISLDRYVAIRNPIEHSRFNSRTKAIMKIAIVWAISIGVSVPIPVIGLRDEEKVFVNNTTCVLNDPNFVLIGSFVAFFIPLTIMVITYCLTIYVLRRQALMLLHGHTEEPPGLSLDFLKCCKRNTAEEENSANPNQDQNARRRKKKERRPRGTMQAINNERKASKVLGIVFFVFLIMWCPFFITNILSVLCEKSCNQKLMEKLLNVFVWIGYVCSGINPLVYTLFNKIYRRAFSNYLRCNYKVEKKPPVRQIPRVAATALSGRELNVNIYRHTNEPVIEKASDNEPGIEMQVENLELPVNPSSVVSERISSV

[4] = target: T4, Alpha-2C adrenergic receptor (Homo sapiens, UniProt P18825); type: functional
T4 sequence (P18825 whole entry): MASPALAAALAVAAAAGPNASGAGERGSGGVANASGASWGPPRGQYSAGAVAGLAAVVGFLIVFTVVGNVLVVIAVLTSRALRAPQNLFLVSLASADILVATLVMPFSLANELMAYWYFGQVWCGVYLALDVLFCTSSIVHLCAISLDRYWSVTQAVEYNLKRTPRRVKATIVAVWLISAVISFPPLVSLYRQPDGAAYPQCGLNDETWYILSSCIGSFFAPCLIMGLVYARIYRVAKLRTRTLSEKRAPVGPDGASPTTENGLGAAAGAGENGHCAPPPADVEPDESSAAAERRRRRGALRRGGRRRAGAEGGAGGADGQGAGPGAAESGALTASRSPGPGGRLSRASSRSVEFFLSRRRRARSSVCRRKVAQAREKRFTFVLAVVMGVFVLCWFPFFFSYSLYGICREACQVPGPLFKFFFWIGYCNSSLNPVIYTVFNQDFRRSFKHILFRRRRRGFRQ

[5] = target: Beta-2 adrenergic receptor (Homo sapiens, UniProt P07550); type: functional, cell-based
Sequence of Beta-2 adrenergic receptor (P07550 whole entry): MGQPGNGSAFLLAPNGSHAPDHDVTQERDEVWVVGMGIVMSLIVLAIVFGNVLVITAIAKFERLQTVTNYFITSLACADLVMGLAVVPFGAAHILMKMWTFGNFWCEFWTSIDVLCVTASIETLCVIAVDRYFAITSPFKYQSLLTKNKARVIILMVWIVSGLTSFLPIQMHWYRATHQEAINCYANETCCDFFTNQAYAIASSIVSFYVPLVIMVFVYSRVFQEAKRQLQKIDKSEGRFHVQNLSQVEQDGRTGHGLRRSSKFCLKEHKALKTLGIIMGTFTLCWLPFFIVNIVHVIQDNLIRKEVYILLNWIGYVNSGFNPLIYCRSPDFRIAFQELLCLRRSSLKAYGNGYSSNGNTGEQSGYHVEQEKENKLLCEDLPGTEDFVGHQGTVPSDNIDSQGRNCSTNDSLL

Cannabinoid receptor 1 = Cannabinoid receptor 1 (Homo sapiens, UniProt P21554)
Sequence of Cannabinoid receptor 1 (P21554 whole entry): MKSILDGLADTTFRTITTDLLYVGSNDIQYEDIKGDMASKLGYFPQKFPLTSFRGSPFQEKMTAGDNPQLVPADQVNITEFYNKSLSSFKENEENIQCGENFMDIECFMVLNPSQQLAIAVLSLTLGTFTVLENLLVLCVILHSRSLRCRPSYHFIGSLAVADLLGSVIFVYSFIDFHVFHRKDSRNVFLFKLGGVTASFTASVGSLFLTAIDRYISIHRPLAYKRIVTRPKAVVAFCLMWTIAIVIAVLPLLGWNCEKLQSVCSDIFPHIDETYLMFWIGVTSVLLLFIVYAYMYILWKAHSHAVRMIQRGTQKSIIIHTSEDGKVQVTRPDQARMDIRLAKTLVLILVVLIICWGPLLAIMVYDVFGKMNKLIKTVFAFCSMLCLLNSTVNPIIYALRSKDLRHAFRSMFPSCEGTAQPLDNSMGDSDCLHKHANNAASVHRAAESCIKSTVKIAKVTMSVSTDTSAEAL

[6] = target: T5, Gastrin/cholecystokinin type B receptor (Homo sapiens, UniProt P32239)
T5 sequence (P32239 whole entry): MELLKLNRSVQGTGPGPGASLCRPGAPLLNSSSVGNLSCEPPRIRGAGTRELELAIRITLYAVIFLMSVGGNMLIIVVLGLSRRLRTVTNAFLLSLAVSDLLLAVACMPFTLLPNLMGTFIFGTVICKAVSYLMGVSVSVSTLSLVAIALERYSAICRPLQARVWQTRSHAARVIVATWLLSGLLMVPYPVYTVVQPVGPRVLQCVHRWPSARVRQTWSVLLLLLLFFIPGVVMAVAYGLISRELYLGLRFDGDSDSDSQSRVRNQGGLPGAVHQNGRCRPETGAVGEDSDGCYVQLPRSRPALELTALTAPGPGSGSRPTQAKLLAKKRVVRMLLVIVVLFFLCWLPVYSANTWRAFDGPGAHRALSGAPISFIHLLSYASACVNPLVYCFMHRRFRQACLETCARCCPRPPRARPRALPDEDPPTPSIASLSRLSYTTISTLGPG

Mu-type opioid receptor = Mu-type opioid receptor (Homo sapiens, UniProt P35372)
Sequence of Mu-type opioid receptor (P35372 whole entry): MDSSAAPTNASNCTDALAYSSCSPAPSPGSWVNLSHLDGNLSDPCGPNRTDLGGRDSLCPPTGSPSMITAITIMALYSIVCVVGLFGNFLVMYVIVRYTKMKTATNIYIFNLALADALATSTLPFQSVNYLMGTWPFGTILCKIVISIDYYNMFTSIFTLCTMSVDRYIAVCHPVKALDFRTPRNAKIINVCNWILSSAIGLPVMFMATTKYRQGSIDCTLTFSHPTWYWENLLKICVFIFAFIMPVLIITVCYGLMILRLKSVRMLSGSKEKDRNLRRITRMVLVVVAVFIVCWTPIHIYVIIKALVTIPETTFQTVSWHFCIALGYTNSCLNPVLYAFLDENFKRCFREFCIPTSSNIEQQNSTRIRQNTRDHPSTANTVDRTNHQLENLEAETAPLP
Further: assay procedure not described here.

What does the source list for `Cc1ccc(-c2nc3ccc(C)cn3c2CC(=O)N(C)C)cc1` [ZOLPIDEM]?
AC50 [1]: > 30 µM; AC50 (Melanocortin receptor 4): > 30 µM; AC50 [2]: 6.76 µM; AC50 [3]: > 30 µM; AC50 [4]: > 30 µM; AC50 [5]: > 30 µM; AC50 (Cannabinoid receptor 1): > 30 µM; AC50 [6]: > 30 µM; AC50 (Mu-type opioid receptor): > 10 µM
